Measured values: patent publication US9833497B2, “Human originated EGF domain proteins and use of the same” (CHENGDU SOURCEBIO LIMITED-LIABILITY COMPANY, priority 2013, dated 2017)

Assays:
Assay type in all cases: cell-based
E. coli DH5α = test: Antibacterial activity: MIC and growth curve against E. coli DH5α in 96-well plate; settings: minimal inhibitory concentration against E. coli DH5α; 96-well plate, 5×10^5 CFU/mL, 37° C., judged after 8 h
Summary of the method: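 Log-phase bacteria (OD600 ~0.5) resuspended in LB at 5×10^5 CFU/mL, exposed to recombinant protein at 50, 25, 12.5 μg/mL final in triplicate, 37 °C shaking at 175 rpm. OD600 read every 30 min; MIC is lowest concentration showing no growth.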

E. coli BL21 = test: MIC against Gram-negative bacteria: E. coli BL21; settings: 5×10^5 CFU/mL
Summary of the method: (§1)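 MIC = lowest concentration of recombinant protein showing no growth. Test proteins: purified human-derived EGF domain proteins, two-fold dilution series, three wells per concentration; inoculum 5×10^5 CFU/mL in LB; incubation 37° C with shaking at 175 rpm.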

Pseudomonas aeruginosa = test: MIC against Gram-negative bacteria: Pseudomonas aeruginosa; settings: 5×10^5 CFU/mL
Summary of the method: as §1

Klebsiella pneumonia = test: MIC against Gram-negative bacteria: Klebsiella pneumonia; settings: 5×10^5 CFU/mL
Summary of the method: as §1

Enterobacter cloacae = test: MIC against Gram-negative bacteria: Enterobacter cloacae; settings: 5×10^5 CFU/mL
Summary of the method: as §1

Aeromonas hydrophila = test: MIC against Gram-negative bacteria: Aeromonas hydrophila; settings: 5×10^5 CFU/mL
Summary of the method: as §1

Citrobacter diversus = test: MIC against Gram-negative bacteria: Citrobacter diversus; settings: 5×10^5 CFU/mL
Summary of the method: as §1

Moraxella catarrhalis = test: MIC against Gram-negative bacteria: Moraxella catarrhalis; settings: 5×10^5 CFU/mL
Summary of the method: as §1

Proteus mirabilis = test: MIC against Gram-negative bacteria: Proteus mirabilis; settings: 5×10^5 CFU/mL
Summary of the method: as §1

Proteus vulgaris = test: MIC against Gram-negative bacteria: Proteus vulgaris; settings: 5×10^5 CFU/mL
Summary of the method: as §1

Serratia marcescens = test: MIC against Gram-negative bacteria: Serratia marcescens; settings: 5×10^5 CFU/mL
Summary of the method: as §1

[1] = E. coli BL21, 10 h cultivation at 37° C.
[2] = 10 h cultivation at 37° C., two-fold serial dilution

Question: For “PRT855 (DVDECATGRASCPRFRQCVNTFGSYICKCHKGFDLMYIGGKYQCH; listed as Homo sapiens)”, which MIC (E. coli DH5α) is on record?
Answer: 50 µg/mL

Question: What about the “MIC (μg/mL) E. coli BL21” value (E. coli BL21; [1]) of the same substance?
Answer: 12.5 µg/mL

Question: And the “MIC (μg/mL) P. aeruginosa” value (Pseudomonas aeruginosa; 10 h cultivation at 37° C.)?
Answer: 50 µg/mL

Question: And the “MIC (μg/mL) K. pneumonia” value (Klebsiella pneumonia; 10 h cultivation at 37° C.)?
Answer: 25 µg/mL

Question: And the “MIC (μg/mL) E. cloacae” value (Enterobacter cloacae; 10 h cultivation at 37° C.)?
Answer: 12.5 µg/mL

Question: What about the “MIC (μg/mL) A. hydrophila” value (Aeromonas hydrophila; 10 h cultivation at 37° C.) of the same substance?
Answer: 50 µg/mL

Question: What about the “MIC (μg/mL) C. diversus” value (Citrobacter diversus; 10 h cultivation at 37° C.) of the same substance?
Answer: 12.5 µg/mL

Question: What about the “MIC (μg/mL) M. catarrhalis” value (Moraxella catarrhalis; 10 h cultivation at 37° C.) of the same substance?
Answer: 12.5 µg/mL

Question: What about the “MIC (μg/mL) P. mirabilis” value (Proteus mirabilis; 10 h cultivation at 37° C.) of the same substance?
Answer: 12.5 µg/mL

Question: What about the “MIC (μg/mL) P. vulgaris” value (Proteus vulgaris; 10 h cultivation at 37° C.) of the same substance?
Answer: 12.5 µg/mL

Question: What about the “MIC (μg/mL) S. marcescens” value (Serratia marcescens; 10 h cultivation at 37° C.) of the same substance?
Answer: 12.5 µg/mL

Question: How did the MIC (E. coli DH5α) turn out when “PRT447 (DVDECAQALHDRRPSQDCHNLSGSYQCTCPDGYRKIGPE; listed as Homo sapiens)” was run?
Answer: 50 µg/mL

Question: What about the “MIC against E. coli BL21” value (E. coli BL21; 96-well plate, 37° C., 10 h) of the same substance?
Answer: 25 µg/mL

Question: And the “MIC against P. aeruginosa” value (Pseudomonas aeruginosa; 96-well plate, 37° C., 10 h)?
Answer: 12.5 µg/mL

Question: What about the “MIC against K. pneumonia” value (Klebsiella pneumonia; 96-well plate, 37° C., 10 h) of the same substance?
Answer: 25 µg/mL

Question: And the “MIC against E. cloacae” value (Enterobacter cloacae; 96-well plate, 37° C., 10 h)?
Answer: 50 µg/mL

Question: And the “MIC against A. hydrophila” value (Aeromonas hydrophila; 96-well plate, 37° C., 10 h)?
Answer: 25 µg/mL

Question: And the “MIC against C. diversus” value (Citrobacter diversus; 96-well plate, 37° C., 10 h)?
Answer: 12.5 µg/mL

Question: And the “MIC against M. catarrhalis” value (Moraxella catarrhalis; 96-well plate, 37° C., 10 h)?
Answer: 25 µg/mL

Question: What about the “MIC against P. mirabilis” value (Proteus mirabilis; 96-well plate, 37° C., 10 h) of the same substance?
Answer: 50 µg/mL

Question: What about the “MIC against P. vulgaris” value (Proteus vulgaris; 96-well plate, 37° C., 10 h) of the same substance?
Answer: 12.5 µg/mL

Question: And the “MIC against S. marcescens” value (Serratia marcescens; 96-well plate, 37° C., 10 h)?
Answer: 50 µg/mL

Question: “PRT1096 (QLNVCNSNPCLHGGNCEDIYSSYHCSCPLGWSGKHCE; listed as Homo sapiens)” was tested. Which MIC (E. coli DH5α) did it give?
Answer: 12.5 µg/mL

Question: And the “MIC E. coli BL21” value (E. coli BL21; [2])?
Answer: 50 µg/mL

Question: What about the “MIC P. aeruginosa” value (Pseudomonas aeruginosa; [2]) of the same substance?
Answer: 50 µg/mL

Question: What about the “MIC K. pneumonia” value (Klebsiella pneumonia; [2]) of the same substance?
Answer: 50 µg/mL

Question: And the “MIC E. cloacae” value (Enterobacter cloacae; [2])?
Answer: 12.5 µg/mL

Question: And the “MIC A. hydrophila” value (Aeromonas hydrophila; [2])?
Answer: 50 µg/mL

Question: What about the “MIC C. diversus” value (Citrobacter diversus; [2]) of the same substance?
Answer: 50 µg/mL

Question: What about the “MIC M. catarrhalis” value (Moraxella catarrhalis; [2]) of the same substance?
Answer: 12.5 µg/mL

Question: And the “MIC P. mirabilis” value (Proteus mirabilis; [2])?
Answer: 12.5 µg/mL

Question: What about the “MIC P. vulgaris” value (Proteus vulgaris; [2]) of the same substance?
Answer: 12.5 µg/mL

Question: And the “MIC S. marcescens” value (Serratia marcescens; [2])?
Answer: 25 µg/mL

Question: For “PRT659 (DADECVIFGPGLCPNGRCLNTVPGYVCLCNPGFHYDASHKKCE; listed as Homo sapiens)”, which MIC (E. coli DH5α) is on record?
Answer: 25 µg/mL

Question: What about the “MIC E. coli BL21” value (E. coli BL21; 96-well plate, 37° C., 10 h) of the same substance?
Answer: 50 µg/mL

Question: What about the “MIC P. aeruginosa” value (Pseudomonas aeruginosa; 96-well plate, 37° C., 10 h) of the same substance?
Answer: 25 µg/mL

Question: And the “MIC K. pneumonia” value (Klebsiella pneumonia; 96-well plate, 37° C., 10 h)?
Answer: 12.5 µg/mL

Question: And the “MIC E. cloacae” value (Enterobacter cloacae; 96-well plate, 37° C., 10 h)?
Answer: 25 µg/mL

Question: What about the “MIC A. hydrophila” value (Aeromonas hydrophila; 96-well plate, 37° C., 10 h) of the same substance?
Answer: 50 µg/mL

Question: What about the “MIC C. diversus” value (Citrobacter diversus; 96-well plate, 37° C., 10 h) of the same substance?
Answer: 25 µg/mL

Question: And the “MIC M. catarrhalis” value (Moraxella catarrhalis; 96-well plate, 37° C., 10 h)?
Answer: 25 µg/mL

Question: And the “MIC P. mirabilis” value (Proteus mirabilis; 96-well plate, 37° C., 10 h)?
Answer: 12.5 µg/mL

Question: What about the “MIC P. vulgaris” value (Proteus vulgaris; 96-well plate, 37° C., 10 h) of the same substance?
Answer: 25 µg/mL

Question: And the “MIC S. marcescens” value (Serratia marcescens; 96-well plate, 37° C., 10 h)?
Answer: 50 µg/mL

Question: “PRT674 (DVDECQDPAACRPGRCVNLPGSYRCECRPPWVPGPSGRDCQ; listed as Homo sapiens)” was tested. Which MIC (E. coli DH5α) did it give?
Answer: 12.5 µg/mL

Question: And the “MIC E. coli BL21” value (E. coli BL21; 96-well plate, 37° C., 10 h)?
Answer: 25 µg/mL

Question: What about the “MIC P. aeruginosa” value (Pseudomonas aeruginosa; 96-well plate, 37° C., 10 h) of the same substance?
Answer: 50 µg/mL

Question: And the “MIC K. pneumonia” value (Klebsiella pneumonia; 96-well plate, 37° C., 10 h)?
Answer: 25 µg/mL

Question: What about the “MIC E. cloacae” value (Enterobacter cloacae; 96-well plate, 37° C., 10 h) of the same substance?
Answer: 12.5 µg/mL

Question: And the “MIC A. hydrophila” value (Aeromonas hydrophila; 96-well plate, 37° C., 10 h)?
Answer: 50 µg/mL

Question: What about the “MIC C. diversus” value (Citrobacter diversus; 96-well plate, 37° C., 10 h) of the same substance?
Answer: 25 µg/mL

Question: And the “MIC M. catarrhalis” value (Moraxella catarrhalis; 96-well plate, 37° C., 10 h)?
Answer: 25 µg/mL

Question: What about the “MIC P. mirabilis” value (Proteus mirabilis; 96-well plate, 37° C., 10 h) of the same substance?
Answer: 12.5 µg/mL

Question: And the “MIC P. vulgaris” value (Proteus vulgaris; 96-well plate, 37° C., 10 h)?
Answer: 50 µg/mL

Question: And the “MIC S. marcescens” value (Serratia marcescens; 96-well plate, 37° C., 10 h)?
Answer: 25 µg/mL

Question: What does the source list for “PRT239 (SAGPCTPNPCHNGGTCEISEAYRGDTFIGYVCKCPRGFNGIHCQ; listed as Homo sapiens)”?
Answer: MIC (E. coli DH5α): 25 µg/mL; MIC (μg/mL) E. coli BL21 (E. coli BL21; [1]): 12.5 µg/mL; MIC (μg/mL) P. aeruginosa (Pseudomonas aeruginosa; 10 h cultivation at 37° C.): 12.5 µg/mL; MIC (μg/mL) K. pneumonia (Klebsiella pneumonia; 10 h cultivation at 37° C.): 12.5 µg/mL; MIC (μg/mL) E. cloacae (Enterobacter cloacae; 10 h cultivation at 37° C.): 12.5 µg/mL; MIC (μg/mL) A. hydrophila (Aeromonas hydrophila; 10 h cultivation at 37° C.): 12.5 µg/mL; MIC (μg/mL) C. diversus (Citrobacter diversus; 10 h cultivation at 37° C.): 100 µg/mL; MIC (μg/mL) M. catarrhalis (Moraxella catarrhalis; 10 h cultivation at 37° C.): 25 µg/mL; MIC (μg/mL) P. mirabilis (Proteus mirabilis; 10 h cultivation at 37° C.): 12.5 µg/mL; MIC (μg/mL) P. vulgaris (Proteus vulgaris; 10 h cultivation at 37° C.): 12.5 µg/mL; MIC (μg/mL) S. marcescens (Serratia marcescens; 10 h cultivation at 37° C.): 12.5 µg/mL

Question: What does the source list for “PRT1317 (APNPCWPSPCSLLAQCSVSPKGQAQCHCPENYHGDGMVCL; listed as Homo sapiens)”?
Answer: MIC (E. coli DH5α): 50 µg/mL; MIC against E. coli BL21 (E. coli BL21; E. coli BL21, 96-well plate, 37° C., 10 h): 12.5 µg/mL; MIC against P. aeruginosa (Pseudomonas aeruginosa; Pseudomonas aeruginosa, 96-well plate, 37° C., 10 h): 50 µg/mL; MIC against K. pneumonia (Klebsiella pneumonia; Klebsiella pneumonia, 96-well plate, 37° C., 10 h): 25 µg/mL; MIC against E. cloacae (Enterobacter cloacae; Enterobacter cloacae, 96-well plate, 37° C., 10 h): 12.5 µg/mL; MIC against A. hydrophila (Aeromonas hydrophila; Aeromonas hydrophila, 96-well plate, 37° C., 10 h): 25 µg/mL; MIC against C. diversus (Citrobacter diversus; Citrobacter diversus, 96-well plate, 37° C., 10 h): 50 µg/mL; MIC against M. catarrhalis (Moraxella catarrhalis; Moraxella catarrhalis, 96-well plate, 37° C., 10 h): 25 µg/mL; MIC against P. mirabilis (Proteus mirabilis; Proteus mirabilis, 96-well plate, 37° C., 10 h): 12.5 µg/mL; MIC against P. vulgaris (Proteus vulgaris; Proteus vulgaris, 96-well plate, 37° C., 10 h): 50 µg/mL; MIC against S. marcescens (Serratia marcescens; Serratia marcescens, 96-well plate, 37° C., 10 h): 12.5 µg/mL
